Experimental findings from ChEMBL document CHEMBL1128273, “Quantitative structure-activity relationships of the inhibition of Pneumocystis carinii dihydrofolate reductase by 4,6-diamino-1,2-dihydro-2,2-dimethyl-1-(X-phenyl)-s-triazines” (J Med Chem, 1995) are described below.

Structures are written as SMILES.

The first data set addresses T1, Dihydrofolate reductase (Pneumocystis carinii, UniProt P16184).
T1 sequence (P16184 whole entry): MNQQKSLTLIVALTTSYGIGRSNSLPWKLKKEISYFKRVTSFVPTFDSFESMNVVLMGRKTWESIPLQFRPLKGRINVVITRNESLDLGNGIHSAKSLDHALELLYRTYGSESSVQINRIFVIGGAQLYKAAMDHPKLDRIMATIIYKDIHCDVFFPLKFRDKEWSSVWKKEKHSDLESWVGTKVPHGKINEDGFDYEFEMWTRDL
Conditions: not given
Compound `Cc1ccc(N2C(N)=NC(N)=NC2(C)C)cc1` had a Ki of 166 nM.

As to `CCCCCCc1ccc(N2C(N)=NC(N)=NC2(C)C)cc1`, the Ki was 7.94 nM.

For `CC(=O)Nc1cccc(OCc2cccc(N3C(N)=NC(N)=NC3(C)C)c2)c1`, the Ki was 3.24 nM.

Compound `CC1(C)N=C(N)N=C(N)N1c1ccc(C(F)(F)F)cc1` had a Ki of 132 nM.

The compound `CC1(C)N=C(N)N=C(N)N1c1cccc(COc2cccc(C#N)c2)c1` had a Ki of 8.32 nM.

`CC1(C)N=C(N)N=C(N)N1c1cccc(COc2cccc(NC(N)=O)c2)c1` gave a Ki of 4.57 nM.

Turning to `CCOc1cc(Cc2cnc(N)nc2N)cc(OCC)c1-n1cccc1` [EPIROPRIM], the Ki was 17.4 nM.

Compound `CC(C)c1cccc(OCc2cccc(N3C(N)=NC(N)=NC3(C)C)c2)c1` showed a Ki of 4.79 nM.

For `CCCCCCCc1ccc(N2C(N)=NC(N)=NC2(C)C)cc1`, the Ki was 6.31 nM.

`CC(C)(C)c1cccc(N2C(N)=NC(N)=NC2(C)C)c1`: the Ki is 214 nM.

Regarding `CC1(C)N=C(N)N=C(N)N1c1cccc(OCCOc2cccc(C(F)(F)F)c2)c1`, the Ki is 22.4 nM.

`CCCCCCCCc1ccc(N2C(N)=NC(N)=NC2(C)C)cc1`: the Ki is 6.31 nM.

The compound `CC1(C)N=C(N)N=C(N)N1c1cccc(COc2cccc(Cl)c2)c1` showed a Ki of 12 nM.

The compound `CCOc1cccc(N2C(N)=NC(N)=NC2(C)C)c1` had a Ki of 6310 nM.

`CC1(C)N=C(N)N=C(N)N1c1cccc(COc2cccc(CO)c2)c1` showed a Ki of 25.1 nM.

As to `CCCCCCCCCCCCCCOc1cccc(N2C(N)=NC(N)=NC2(C)C)c1`, the Ki is 331 nM.

The compound `Cc1cccc(OCc2cccc(N3C(N)=NC(N)=NC3(C)C)c2)c1` had a Ki of 19.5 nM.

For `CC1(C)N=C(N)N=C(N)N1c1cccc(COc2cccc(-c3ccccc3)c2)c1`, the Ki is 4.47 nM.

For `CC1(C)N=C(N)N=C(N)N1c1cccc(OCC23CC4CC(CC(C4)C2)C3)c1`, the Ki is 17 nM.

As for `CC1(C)N=C(N)N=C(N)N1c1cccc(OCc2ccccc2)c1`, the Ki is 64.6 nM.

`CC1(C)N=C(N)N=C(N)N1c1cccc([N+](=O)[O-])c1` had a Ki of 132 nM.

In the case of `CCCCCCCCCOc1cccc(N2C(N)=NC(N)=NC2(C)C)c1`, the Ki was 6.76 nM.

In turn, `CC1(C)N=C(N)N=C(N)N1c1cccc(OCCCCOc2ccccc2)c1` showed a Ki of 38 nM.

For the compound `CCCCCOc1ccc(N2C(N)=NC(N)=NC2(C)C)cc1`, the Ki is 257 nM.

The compound `COc1cccc(OCc2cccc(N3C(N)=NC(N)=NC3(C)C)c2)c1` had a Ki of 7.76 nM.

`CCOC(=O)c1cccc(N2C(N)=NC(N)=NC2(C)C)c1` showed a Ki of 2340 nM.

Consider `CCCCCCOc1cccc(N2C(N)=NC(N)=NC2(C)C)c1`, for which the Ki is 21.4 nM.

Compound `CCCCOc1ccc(N2C(N)=NC(N)=NC2(C)C)cc1` had a Ki of 631 nM.

Compound `CCCCCCCCCCCOc1cccc(N2C(N)=NC(N)=NC2(C)C)c1` showed a Ki of 18.6 nM.

In turn, `CCc1cccc(OCc2cccc(N3C(N)=NC(N)=NC3(C)C)c2)c1` showed a Ki of 4.17 nM.

The compound `CC1(C)N=C(N)N=C(N)N1c1cccc(C(O)c2ccccc2)c1` (stereo not drawn) gave a Ki of 1170 nM.

`CCCCCCOc1ccc(N2C(N)=NC(N)=NC2(C)C)cc1` gave a Ki of 100 nM.

As for `CC1(C)N=C(N)N=C(N)N1c1cccc(CNc2cc(C(N)=O)cc(C(N)=O)c2)c1`, the Ki was 15.1 nM.

With `CCCCCCCCCCc1ccc(N2C(N)=NC(N)=NC2(C)C)cc1`, the Ki is 15.8 nM.

On to `CSc1ccc(N2C(N)=NC(N)=NC2(C)C)cc1`, for which the Ki is 251 nM.

`CC1(C)N=C(N)N=C(N)N1c1ccc(O)cc1` gave a Ki of 2510 nM.

As to `CC1(C)N=C(N)N=C(N)N1c1cccc(SCc2ccc(Cl)cc2)c1`, the Ki is 2.63 nM.

`CC1(C)N=C(N)N=C(N)N1c1cccc(SCc2ccccc2)c1` gave a Ki of 2.82 nM.

Regarding `CC1(C)N=C(N)N=C(N)N1c1cccc(COc2cccc3ccccc23)c1`, the Ki was 5.37 nM.

In turn, `CCCCCc1ccc(OCc2cccc(N3C(N)=NC(N)=NC3(C)C)c2)cc1` had a Ki of 17 nM.

In another data set the target is T2, Dihydrofolate reductase (Homo sapiens, UniProt P00374).
T2 sequence (P00374 whole entry): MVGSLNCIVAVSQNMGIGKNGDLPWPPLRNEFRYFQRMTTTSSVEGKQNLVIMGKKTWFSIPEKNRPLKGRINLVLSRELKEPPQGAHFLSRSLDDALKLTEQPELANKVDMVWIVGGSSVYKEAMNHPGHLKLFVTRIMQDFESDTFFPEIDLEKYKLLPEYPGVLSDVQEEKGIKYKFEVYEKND
As to the kind of experiment: Inhibition of human dihydrofolate reductase (DHFR). The following applies: read-out: Log 1/Ki (converted).
As for `CC1(C)N=C(N)N=C(N)N1c1cccc(SCc2ccccc2)c1`, the Ki was 42.7 nM.

With `CC1(C)N=C(N)N=C(N)N1c1cccc(COc2cccc3ccccc23)c1`, the Ki was 135 nM.

Test system in the next data set: not listed separately
In words: Selectivity index as the ratio of Ki value towards Human DHFR to that of Pneumocystis carinii DHFR.
Conditions: not given
In the case of `CCOc1cc(Cc2cnc(N)nc2N)cc(OCC)c1-n1cccc1` [EPIROPRIM], the Selectivity index came to 0.53.

As for `CC1(C)N=C(N)N=C(N)N1c1cccc(OCC23CC4CC(CC(C4)C2)C3)c1`, the Selectivity index is 1.66.

Consider `CC1(C)N=C(N)N=C(N)N1c1cccc(SCc2ccccc2)c1`, for which the Selectivity index is 1.18.

Regarding `CC1(C)N=C(N)N=C(N)N1c1cccc(COc2cccc3ccccc23)c1`, the Selectivity index came out at 1.38.

Test system in a further data set: not listed separately
In words: Partition coefficient (logP). The note with it: octanol/water. Type of data set: physicochemical.
For `CC1(C)N=C(N)N=C(N)N1c1ccc(CCCCc2ccc(S(=O)(=O)F)cc2Cl)c(Cl)c1`, the lipophilicity (logP) was found to be 2.42.

As to `CN(C)C(=O)c1cccc(COc2ccc(N3C(N)=NC(N)=NC3(C)C)cc2Cl)c1`, the lipophilicity (logP) was -1.84.

As a reminder, the logP is the decadic logarithm of the partition coefficient of the neutral form, usually between octanol and water. Lower therefore signals a more hydrophilic compound.
